# Experimental data as given in US9926340B2, “NAD analogs and methods of using said NAD analogs in determining ribosylation of proteins with PARP mutants” (The Board of Regents of the University of Texas System, priority 2015, dated 2018).
# Entries after “also recorded” stand apart in the source; their conditions may differ.
# Target: T1, asPARP-1 in nuclei from Parp1−/− MEFs (Mus musculus, UniProt P11103, L876A)
# T1 construct: expressed in transfected cells; host or cells: Parp1-/- mouse embryonic fibroblasts, lentiviral transduction, isolated nuclei
# Assay: 8-Bu(3-yne)T-ADP-ribosylation reactions in intact nuclei
# Assay type: cell-based
# Conditions: Parp1−/− MEF nuclei, 250 μM analog, 30 minutes at 25° C.
# Protocol: 50% confluent MEF cells expressing asPARP-1 were harvested with cold PBS using a rubber policeman and collected by centrifugation for 5 minutes at 800 RCF at 4° C. Cells were resuspended for 10 minutes to facilitate cell swelling in Nuclear Isolation Buffer (10 mM HEPES, pH 8.0, 2 mM MgCl2, 3 mM CaCl2, 300 mM Sucrose, 1 mM DTT, 1 mM PMSF, 4 mM Benzamidine, 1 μM Aprotinin, 100 μM Leupeptin, 1 μM Pepstatin A, and 1 in 250 parts SIGMA Phosphatase Inhibitor Cocktails 2 and 3). Nuclei were released from cells by addition of NP-40 to 0.65% under medium vortex and immediately collected by centrifugation at 10,000 RCF for 1 minute at 4° C. […]
# Following 8-Bu(3-yne)T-ADP-ribosylation in intact nuclei from MEFs as described above, the nuclei were washed once with Nuclei Click Reaction Buffer (10 mM HEPES, pH 8.0, 10 mM NaCl, 10 mM spermidine, 0.1% NP-40, with freshly added protease inhibitors) and then clicked twice to Alexa Fluor 488 by the sequential addition of 100 μM azido-Alexa Fluor 488 (Life Technologies), a pre-formed complex of CuSO4:THPTA (1.0 mM:5.0 mM), and 5 mM sodium ascorbate. […] Fluorescence was visualized via confocal microscopy using a Leica TCS SP2 Confocal Microscope.
# T1 sequence (P11103 whole entry L876A): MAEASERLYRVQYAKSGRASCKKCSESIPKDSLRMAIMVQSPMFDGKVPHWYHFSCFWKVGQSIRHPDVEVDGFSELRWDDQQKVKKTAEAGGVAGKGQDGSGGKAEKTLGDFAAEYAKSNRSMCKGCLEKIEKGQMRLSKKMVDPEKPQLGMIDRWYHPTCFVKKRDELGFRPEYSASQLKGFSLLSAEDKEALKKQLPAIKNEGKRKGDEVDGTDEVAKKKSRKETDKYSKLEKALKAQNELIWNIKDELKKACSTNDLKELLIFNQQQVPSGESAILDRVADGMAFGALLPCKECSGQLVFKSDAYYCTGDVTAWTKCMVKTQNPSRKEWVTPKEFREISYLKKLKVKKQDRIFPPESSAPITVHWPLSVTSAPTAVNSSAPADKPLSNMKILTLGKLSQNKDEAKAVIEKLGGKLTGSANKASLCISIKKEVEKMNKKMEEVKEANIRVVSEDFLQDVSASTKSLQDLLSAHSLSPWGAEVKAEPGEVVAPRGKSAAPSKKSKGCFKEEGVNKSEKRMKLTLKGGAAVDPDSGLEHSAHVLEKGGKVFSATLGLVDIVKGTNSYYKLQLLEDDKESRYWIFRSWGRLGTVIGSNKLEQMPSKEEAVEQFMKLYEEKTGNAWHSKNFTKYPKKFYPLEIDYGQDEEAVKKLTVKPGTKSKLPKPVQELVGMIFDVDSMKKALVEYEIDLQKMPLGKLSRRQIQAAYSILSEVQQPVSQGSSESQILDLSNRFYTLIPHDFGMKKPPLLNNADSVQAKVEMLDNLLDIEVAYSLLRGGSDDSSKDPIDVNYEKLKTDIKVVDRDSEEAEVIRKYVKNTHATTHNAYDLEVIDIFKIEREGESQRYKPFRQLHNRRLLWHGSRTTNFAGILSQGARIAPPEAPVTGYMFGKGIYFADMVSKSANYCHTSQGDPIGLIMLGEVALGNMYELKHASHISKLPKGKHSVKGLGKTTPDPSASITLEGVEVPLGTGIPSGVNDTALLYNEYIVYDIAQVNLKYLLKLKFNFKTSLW
smiles,measurement,value
C#CCCSc1nc2c(N)ncnc2n1[C@@H]1O[C@H](COP(=O)(O)OP(=O)(O)OC[C@H]2O[C@@H]([n+]3cccc(C(N)=O)c3)C(O)C2O)[C@H](O)C1O (stereo partly shown) [8-Bu(3-yne)T-NAD^+],ADP-ribosylation in intact nuclei expressing asPARP-1,catalytically active; also recorded: clearly evident
